27 compounds from patent US8871767B2, “2-arylimidazo[1,2-B]pyridazine, 2-phenylimidazo[1,2-A]pyridine, and 2-phenylimidazo[1,2-A]pyrazine derivatives” (Hengrui (USA) Ltd., priority 2010, dated 2014) can be followed below.

Assay [1] has as its system Hedgehog pathway activation on 10T1/2/Smo#3 cells (C3H10T1/2 cells transfected with human Smoothened receptor). Description: Hedgehog pathway activation on 10T1/2/Smo#3 cells measured by ALP activity. Format: cell-based. Particulars: Mus musculus, C3H 10T1/2, 10T1/2/Smo#3 cells. An outline of the steps: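 C3H10T1/2 cells stably expressing human Smoothened were activated with hShh-conditioned medium (10-20%) or 500 nM SAG, with test compounds present. Pathway block read as inhibited ALP activity (4-methylumbelliferyl phosphate fluorescence); viability checked by CellTiter-Blue. IC50 values reported.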

Assay [2] concerns Hedgehog pathway activation (GLi-luciferase reporter) in Shh Light II reporter cells. Nature of the assay: Hedgehog pathway activation on Shh Light II reporter cells measured by luciferase activity. It counts as cell-based. The settings on record: Mus musculus, Shh Light II. Put shortly:
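Shh Light II reporter cells carrying a hedgehog-responsive GLi-luciferase reporter were stimulated either with 500 nM SAG, a direct Smoothened agonist, or with conditioned media containing human Sonic Hedgehog (hShh). Test compounds were evaluated for blocking this pathway activation, quantified by luciferase activity. Cell viability was monitored in parallel with the Celltiter-Blue® assay.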

The mark [3] stands for this setting: measured by ALP activity, read-out: ALP (IC50, inhibition of Hedgehog pathway activation).
Setting [4] is: hShh activation, read-out: Shh (IC50, inhibition of Hedgehog pathway activation).
Where [5] appears, read: hShh activation, ALP activity, read-out: 10T1/2/Smo#3 ALP activity (hShh Activation).
Setting [6] is: SAG activation (500 nM SAG), read-out: Shh Light II luciferase activity (SAG activation).
Setting [7] is: hShh activation, read-out: Shh Light II luciferase activity (hShh activation).

Like-named read-outs stand apart in the source and are kept apart here. Where only a bound is given, the exact number is not on record here.

As for `CCOc1ccc2nc(-c3ccc(C(F)(F)F)c(NC(=O)C(C)C)c3)cn2n1` [Example 185, N-(5-(6-ethoxyimidazo[1,2-b]pyridazin-2-yl)-2-(trifluoromethyl)phenyl)isobutyramide], the IC50 is 1670 nM in assay [1] (setting [3]) and 1780 nM in assay [2] (setting [4]).
For the compound `CC(C)(C)CC(=O)Nc1cc(-c2cn3nc(-c4cccnc4C(F)(F)F)ccc3n2)ccc1F` [Example 679, N-(2-fluoro-5-(6-(2-(trifluoromethyl)pyridin-3-yl)imidazo[1,2-b]pyridazin-2-yl)phenyl)-3,3-dimethylbutanamide], the IC50 stood at 658 nM in assay [1] (setting [3]) and 254 nM in assay [2] (setting [4]).
For `CC(C)(C)C(=O)Nc1cc(-c2cn3nc(N4CCCC(C(F)(F)F)C4)ccc3n2)ccc1C(F)(F)F` (stereo not drawn) [Example 356, N-(2-(trifluoromethyl)-5-(6-(3-(trifluoromethyl)piperidin-1-yl)imidazo[1,2-b]pyridazin-2-yl)phenyl)pivalamide] the same measures were 514 nM and 309 nM.
Turning to `CC(C)(C)C(=O)Nc1cc(-c2cn3ccc(Cl)cc3n2)ccc1C(F)(F)F` [Example 82, N-(5-(7-chloroimidazo[1,2-a]pyridin-2-yl)-2-(trifluoromethyl)phenyl)pivalamide], the IC50 in assay [1] (setting [3]) is greater than 10000 nM; in assay [2] (setting [4]), 6060 nM.
Regarding `CCCOc1ccc(F)c(-c2ccc3nc(-c4ccc(C(F)(F)F)c(NC(=O)C(C)(C)C)c4)cn3n2)c1` [Example 253, N-(5-(6-(2-fluoro-5-propoxyphenyl)imidazo[1,2-b]pyridazin-2-yl)-2-(trifluoromethyl)phenyl)pivalamide], the IC50 in assay [1] (setting [3]) is 448 nM; in assay [2] (setting [4]) it was 899 nM.
In the case of `CC(C)(C)C(=O)Nc1cc(-c2cn3nc(-c4cnccc4Cl)ccc3n2)ccc1C(F)(F)F` [Example 386, N-(5-(6-(4-chloropyridin-3-yl)imidazo[1,2-b]pyridazin-2-yl)-2-(trifluoromethyl)phenyl)pivalamide], the IC50 in assay [1] (setting [3]) turned out to be 1710 nM; in assay [2] (setting [4]), 3090 nM.
As for `Cc1ccc(-c2cn3nc(-c4cc(O)ccc4C(F)(F)F)ccc3n2)cc1NC(=O)C(C)(C)C` [Example 399, N-(5-(6-(5-hydroxy-2-(trifluoromethyl)phenyl)imidazo[1,2-b]pyridazin-2-yl)-2-methylphenyl)pivalamide], the IC50 is less than 300 nM in assay [1] (setting [5]); 175 nM in assay [1] (setting [3]); less than 300 nM in assay [2] (setting [6]); 105 nM in assay [2] (setting [4]); less than 300 nM in assay [2] (setting [7]).
`Cc1cc(-c2ccc3nc(-c4ccc(C(F)(F)F)c(NC(=O)C(C)(C)C)c4)cn3n2)ccn1` [Example 381, N-(5-(6-(2-methylpyridin-4-yl)imidazo[1,2-b]pyridazin-2-yl)-2-(trifluoromethyl)phenyl)pivalamide]: the IC50 worked out at 580 nM in assay [1] (setting [3]) and 1250 nM in assay [2] (setting [4]).
For `Cc1ccc(-c2cn3nc(-c4cc(C#N)ccc4Cl)ccc3n2)cc1NC(=O)C(C)(C)C` [compound 565] the same measures were 61 nM and 9 nM.
Consider `Cc1ccc(-c2cn3nc(-c4ccc(C#N)cc4Cl)ccc3n2)cc1NC(=O)C(C)(C)C` [compound 564], for which the IC50 in assay [1] (setting [3]) stood at 60 nM; in assay [2] (setting [4]) it was 20 nM.
`CN(CCO)c1ccc2nc(-c3ccc(C(F)(F)F)c(NC(=O)C(C)(C)C)c3)cn2n1` [Example 298, N-(5-(6-((2-hydroxyethyl)(methyl)amino)imidazo[1,2-b]pyridazin-2-yl)-2-(trifluoromethyl)phenyl)pivalamide]: the results for the IC50 in assay [1] (setting [3]) and in assay [2] (setting [4]) were 612 nM and 403 nM, respectively.
`CC1CN(C2CCN(c3ccc4nc(-c5ccc(C(F)(F)F)c(NC(=O)C(C)(C)C)c5)cn4n3)CC2)CC(C)O1` (stereo not drawn) [Example 370, N-(5-(6-(4-(2,6-dimethylmorpholino)piperidin-1-yl)imidazo[1,2-b]pyridazin-2-yl)-2-(trifluoromethyl)phenyl)pivalamide]: the IC50 in assay [1] (setting [3]) is 333 nM; in assay [2] (setting [4]) it was 321 nM.
In the case of `CC(C)(C)C(=O)Nc1cc(-c2cn3nc(-c4cc(F)ccc4F)ccc3n2)ccc1C(F)(F)F` [Example 224, N-(5-(6-(2,5-difluorophenyl)imidazo[1,2-b]pyridazin-2-yl)-2-(trifluoromethyl)phenyl)pivalamide], the IC50 in assay [1] (setting [3]) was 62 nM; in assay [2] (setting [4]) it was 82 nM.
On to `Cc1cc(Cl)c(-c2cn3nc(N4CC[C@@H](O)C4)ccc3n2)cc1NC(=O)C(C)(C)C` [Example 640, (R)—N-(4-chloro-5-(6-(3-hydroxypyrrolidin-1-yl)imidazo[1,2-b]pyridazin-2-yl)-2-methylphenyl)pivalamide], for which the values for the IC50 in assay [1] (setting [3]) and in assay [2] (setting [4]) were 138 nM and 107 nM, respectively.
Turning to `COc1ccc2nc(-c3ccc(Cl)c(NC(=O)C(C)(C)C)c3)cn2n1` [Example 110, N-(2-chloro-5-(6-methoxyimidazo[1,2-b]pyridazin-2-yl)phenyl)pivalamide], the IC50 in assay [1] (setting [3]) was 8040 nM; in assay [2] (setting [4]), greater than 10000 nM.
As to `CCOC(=O)Nc1cc(-c2cn3nc(-c4cccnc4C(F)(F)F)ccc3n2)ccc1F` [Example 682, ethyl 2-fluoro-5-(6-(2-(trifluoromethyl)pyridin-3-yl)imidazo[1,2-b]pyridazin-2-yl)phenylcarbamate], the IC50 came to 1740 nM in assay [1] (setting [3]) and 571 nM in assay [2] (setting [4]).
With `Cc1ccc(-c2cn3nc(N4CCOCC4)ccc3n2)cc1NC(=O)C(C)(C)C` [Example 128, N-(2-methyl-5-(6-morpholinoimidazo[1,2-b]pyridazin-2-yl)phenyl)pivalamide], the IC50 was 300 to 3000 nM in assay [1] (setting [5]); 422 nM in assay [1] (setting [3]); 3000 to 30000 nM in assay [2] (setting [6]); greater than 10000 nM in assay [2] (setting [4]); 3000 to 30000 nM in assay [2] (setting [7]).
With `CC(C)(C)C(=O)Nc1cc(-c2cn3ncccc3n2)ccc1Cl` [Example 113, N-(2-chloro-5-(imidazo[1,2-b]pyridazin-2-yl)phenyl)pivalamide], the IC50 in assay [1] (setting [5]) was 300 to 3000 nM; in assay [1] (setting [3]), 1560 nM; in assay [2] (setting [6]) it was 3000 to 30000 nM; in assay [2] (setting [4]), 1000 nM; in assay [2] (setting [7]) it was 300 to 3000 nM.
With `Cc1ccc(-c2cn3nc(-c4ccc(F)nc4F)ccc3n2)cc1NC(=O)C(C)(C)C` [Example 280, N-(5-(6-(2,6-difluoropyridin-3-yl)imidazo[1,2-b]pyridazin-2-yl)-2-methylphenyl)pivalamide], the IC50 in assay [1] (setting [3]) was determined as 236 nM; in assay [2] (setting [4]), 475 nM.
In the same order, the values of `CCN[C@H]1CCN(c2ccc3nc(-c4ccc(C)c(NC(=O)C(C)(C)C)c4)cn3n2)C1` [Example 394, (S)-N-(5-(6-(3-(ethylamino)pyrrolidin-1-yl)imidazo[1,2-b]pyridazin-2-yl)-2-methylphenyl)pivalamide] are 189 nM and 41 nM.
In the same order, the values of `COc1ccc2nc(-c3ccc(C(F)(F)F)c(NC(=O)C(C)(C)C)c3)cn2n1` [Example 125, N-(5-(6-methoxyimidazo[1,2-b]pyridazin-2-yl)-2-(trifluoromethyl)phenyl)pivalamide] are 1250 nM and 435 nM.
`CCNC1CCN(c2ccc3nc(-c4ccc(C)c(NC(=O)C(C)(C)C)c4)cn3n2)C1` (stereo not drawn) [Example 474, N-(5-(6-(3-(ethylamino)pyrrolidin-1-yl)imidazo[1,2-b]pyridazin-2-yl)-2-methylphenyl)pivalamide]: the IC50 in assay [1] (setting [3]) amounted to 34 nM; in assay [2] (setting [4]) it was 31 nM.
On to `O=C(Nc1cc(-c2cn3nc(-c4cccnc4C(F)(F)F)ccc3n2)ccc1Cl)N1CC(F)(F)C1` [Example 669, N-(2-chloro-5-(6-(2-(trifluoromethyl)pyridin-3-yl)imidazo[1,2-b]pyridazin-2-yl)phenyl)-3,3-difluoroazetidine-1-carboxamide], for which the IC50 in assay [1] (setting [5]) is less than 300 nM; in assay [1] (setting [3]), 125 nM; in assay [2] (setting [6]), less than 300 nM; in assay [2] (setting [4]) it was 28 nM; in assay [2] (setting [7]), less than 300 nM.
For the compound `CC(C)(C)C(=O)Nc1cc(-c2cn3nc(-c4cccc(F)c4)ccc3n2)ccc1C(F)(F)F` [Example 222, N-(5-(6-(3-fluorophenyl)imidazo[1,2-b]pyridazin-2-yl)-2-(trifluoromethyl)phenyl)pivalamide], the IC50 in assay [1] (setting [3]) amounted to 425 nM; in assay [2] (setting [4]), 156 nM.
With `CCc1ccc(-c2cn3nc(-c4ccccc4F)ccc3n2)cc1NC(=O)C(C)(C)C` [Example 295, N-(2-ethyl-5-(6-(2-fluorophenyl)imidazo[1,2-b]pyridazin-2-yl)phenyl)pivalamide], the IC50 in assay [1] (setting [5]) is less than 300 nM; in assay [1] (setting [3]), 326 nM; in assay [2] (setting [6]) it was 300 to 3000 nM; in assay [2] (setting [4]), 320 nM; in assay [2] (setting [7]), less than 300 nM.
In the case of `Cc1ccc(-c2cn3nc(-c4ccc(S(N)(=O)=O)cc4C(F)(F)F)ccc3n2)cc1NC(=O)C(C)(C)C` [compound 535], the values for the IC50 in assay [1] (setting [3]) and in assay [2] (setting [4]) were 139 nM and 56 nM, respectively.
As for `CC(=O)NC1CCN(c2ccc3nc(-c4ccc(C)c(NC(=O)C(C)(C)C)c4)cn3n2)C1` (stereo not drawn) [Example 362, N-(5-(6-(3-acetamidopyrrolidin-1-yl)imidazo[1,2-b]pyridazin-2-yl)-2-methylphenyl)pivalamide], the IC50 turned out to be 155 nM in assay [1] (setting [3]) and 104 nM in assay [2] (setting [4]).
